Several values for one entry are separate records, joined by “and”; a condition that tells them apart may be missing. Equal entries are not always repeated. Where two headings read alike, the source gives them in different places.
Target: T1, hCav1.2 (α1c + β2 + α2δ1) (Homo sapiens, UniProt Q13936)
T1 construct: host or cells: HEK293T
Assay: Whole-cell patch-clamp on HEK293T cells, ICaL
Assay type: cell-based
Experimental: Experiments were performed on HEK293T cell lines with persistent/inducible expression of different human cardiac ion channel isoforms: hNav1.5 and hKv7.1 + minK (Anaxon AG, Bern, Switzerland), hCav1.2 (α1c + β2 + α2δ1) (B’SYS GmbH, Witterswil, Switzerland), and hKv11.1 (hERG) (Cytocentrics Bioscience GmbH, Rostock, Germany). The cell lines were grown in standard conditions (37 °C, 5% CO2, 90% humidity) in DMEM:F12 medium (D8900, Sigma-Aldrich, Burlington, MA, USA) buffered with 15 mM HEPES, containing 3.15 g/L D-glucose and 0.055 g/L sodium pyruvate, supplemented with 1.2 g/L sodium bicarbonate, 10% fetal bovine serum (F2442, Sigma-Aldrich, Burlington, MA, USA), 2 mM L-glutamine (G7513, Sigma-Aldrich, Burlington, MA, USA), 1% penicillin–streptomycin (P4333, Sigma-Aldrich, Burlington, MA, USA), and with specific antibiotics for selection of transfected cells or induction of gene expression according to manufacturers’ instructions. The medium was changed every 2–3 days and the cells were passed weekly upon detachment with trypsin–EDTA solution. All cell culture media and solutions were sterile filtered with 0.22 μm polyvinylidene fluoride filters. Ncyte® vCardiomyocytes (Ncardia, Leiden, The Netherlands) were cultured in 24-well plates precoated with bovine fibronectin, following manufacturer’s instructions. For the experiments, cardiomyocytes were detached as described previously and plated on ϕ 10 mm glass coverslips, like the other cell lines.
Manual whole-cell patch-clamp experiments were performed at room temperature, with equipment as described in previous studies. Pipettes were pulled from Clark borosilicate glass capillaries with inner filament (GC150F-10, Harvard Apparatus, Holliston, MA, USA) and had typical resistances of 2–3 MΩ. Recordings were performed with a WPC-100 resistive feedback amplifier (ESF electronic, Göttingen, Germany) or an Axopatch 200B amplifier (Axon Instruments—Molecular Devices, San Jose, CA, USA) connected to a Digidata 1322A interface driven by the pClamp 8.2 Clampex module (Axon Instruments, part of Molecular Devices, San Jose, CA, USA). For different types of ion channel, we applied specific voltage-clamp protocols as follows: • - For hERG, a standard two-step activation protocol was used: holding at −70 mV, a 100 ms step at −50 mV used as current reference for measurements, a 2 s depolarizing step at +40 mV, followed by a 2 s step at −50 mV to elicit the peak hERG current by rapid recovery from inactivation, repeated sweeps at 10 s intervals, plus specific protocols to assess the voltage dependence of activation and inactivation, as described in Thomet et al., 2021 [11]. • - For hKv7.1 + minK, a general two-step activation protocol was used: holding at −110 mV, a 250 ms step at −80 mV with a brief (50 ms) step at −90 mV at the middle to monitor seal quality, a 3000 ms depolarizing step at +60 mV, followed by a 1000 ms step at −50 mV; repeated sweeps at 20 s intervals. • - For hCav1.2, a pharmacology protocol with holding at −80 mV, a first 100 ms step at −50 mV and a second 200 ms step at 0 mV, repeated sweeps at 20 s intervals with drug application after 5 sweeps if current levels were steady, plus an activation–inactivation protocol with holding at −80 mV, 1000 ms depolarizing steps from −80 to +50 mV in 10 mV increments, followed by 250 ms steps at +10 mV and a return to −80 mV; 14 sweeps at 20 s intervals. • - For hNav1.5, multiple voltage protocols were used, including the following: • - A standard pharmacology protocol with holding at −90 mV, a 20 ms step at −110 mV for seal monitoring, a 40 ms activation step at −10 mV, and repeated sweeps at 1 s intervals. […]

T1 sequence (Q13936 whole entry): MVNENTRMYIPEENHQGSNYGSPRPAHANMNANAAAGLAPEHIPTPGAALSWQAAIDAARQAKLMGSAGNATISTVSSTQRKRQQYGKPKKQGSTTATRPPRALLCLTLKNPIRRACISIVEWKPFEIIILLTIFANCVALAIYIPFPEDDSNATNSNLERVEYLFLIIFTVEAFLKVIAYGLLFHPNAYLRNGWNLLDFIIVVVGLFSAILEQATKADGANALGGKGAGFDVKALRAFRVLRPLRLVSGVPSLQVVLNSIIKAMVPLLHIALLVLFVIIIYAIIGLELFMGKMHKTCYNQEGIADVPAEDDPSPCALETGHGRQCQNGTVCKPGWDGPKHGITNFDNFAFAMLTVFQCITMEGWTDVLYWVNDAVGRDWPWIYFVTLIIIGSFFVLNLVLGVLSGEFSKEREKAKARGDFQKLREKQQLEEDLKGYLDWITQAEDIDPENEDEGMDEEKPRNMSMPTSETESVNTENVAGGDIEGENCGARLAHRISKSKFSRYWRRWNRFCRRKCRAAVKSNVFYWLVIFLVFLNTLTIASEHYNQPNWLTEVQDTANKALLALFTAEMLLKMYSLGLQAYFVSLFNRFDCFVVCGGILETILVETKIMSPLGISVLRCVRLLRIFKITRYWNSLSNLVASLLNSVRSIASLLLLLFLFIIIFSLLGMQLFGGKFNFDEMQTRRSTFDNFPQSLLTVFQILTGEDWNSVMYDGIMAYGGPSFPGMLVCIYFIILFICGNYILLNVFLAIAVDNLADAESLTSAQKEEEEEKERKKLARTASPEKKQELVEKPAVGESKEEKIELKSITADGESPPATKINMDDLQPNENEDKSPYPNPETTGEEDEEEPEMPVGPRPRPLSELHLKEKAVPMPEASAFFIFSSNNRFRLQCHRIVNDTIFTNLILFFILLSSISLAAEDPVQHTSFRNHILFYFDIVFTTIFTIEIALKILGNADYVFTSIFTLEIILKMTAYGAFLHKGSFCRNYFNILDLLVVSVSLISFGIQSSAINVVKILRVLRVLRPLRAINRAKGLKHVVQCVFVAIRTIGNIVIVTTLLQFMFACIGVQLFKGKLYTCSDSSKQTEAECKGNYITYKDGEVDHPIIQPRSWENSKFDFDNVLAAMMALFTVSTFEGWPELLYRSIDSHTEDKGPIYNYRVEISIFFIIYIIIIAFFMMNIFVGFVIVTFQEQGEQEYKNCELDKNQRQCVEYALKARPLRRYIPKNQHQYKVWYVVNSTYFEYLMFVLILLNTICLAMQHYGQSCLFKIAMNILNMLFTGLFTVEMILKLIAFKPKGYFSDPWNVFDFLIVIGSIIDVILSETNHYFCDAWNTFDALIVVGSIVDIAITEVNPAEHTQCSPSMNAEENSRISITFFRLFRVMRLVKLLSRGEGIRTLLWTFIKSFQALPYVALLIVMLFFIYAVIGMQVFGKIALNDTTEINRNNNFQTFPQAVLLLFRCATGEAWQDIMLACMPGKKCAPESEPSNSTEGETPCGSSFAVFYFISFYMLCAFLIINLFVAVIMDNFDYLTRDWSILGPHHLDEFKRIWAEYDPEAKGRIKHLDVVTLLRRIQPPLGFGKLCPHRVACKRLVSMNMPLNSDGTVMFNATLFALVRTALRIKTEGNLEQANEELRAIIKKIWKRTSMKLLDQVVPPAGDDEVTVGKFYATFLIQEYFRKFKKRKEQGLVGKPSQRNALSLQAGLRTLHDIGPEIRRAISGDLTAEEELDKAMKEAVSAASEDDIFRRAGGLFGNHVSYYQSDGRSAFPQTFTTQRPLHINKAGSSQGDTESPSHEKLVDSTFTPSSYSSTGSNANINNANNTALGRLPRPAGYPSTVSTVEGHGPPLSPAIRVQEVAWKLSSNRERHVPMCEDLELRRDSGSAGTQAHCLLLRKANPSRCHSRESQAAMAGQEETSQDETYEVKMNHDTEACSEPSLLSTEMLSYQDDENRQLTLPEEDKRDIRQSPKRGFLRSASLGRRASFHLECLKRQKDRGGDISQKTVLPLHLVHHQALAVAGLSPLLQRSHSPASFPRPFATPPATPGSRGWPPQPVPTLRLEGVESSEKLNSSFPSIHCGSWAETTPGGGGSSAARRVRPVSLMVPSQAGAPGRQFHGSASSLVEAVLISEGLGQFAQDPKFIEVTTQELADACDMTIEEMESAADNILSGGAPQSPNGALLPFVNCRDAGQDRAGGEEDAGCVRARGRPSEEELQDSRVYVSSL
T1 sequence (Q08289 whole entry partner): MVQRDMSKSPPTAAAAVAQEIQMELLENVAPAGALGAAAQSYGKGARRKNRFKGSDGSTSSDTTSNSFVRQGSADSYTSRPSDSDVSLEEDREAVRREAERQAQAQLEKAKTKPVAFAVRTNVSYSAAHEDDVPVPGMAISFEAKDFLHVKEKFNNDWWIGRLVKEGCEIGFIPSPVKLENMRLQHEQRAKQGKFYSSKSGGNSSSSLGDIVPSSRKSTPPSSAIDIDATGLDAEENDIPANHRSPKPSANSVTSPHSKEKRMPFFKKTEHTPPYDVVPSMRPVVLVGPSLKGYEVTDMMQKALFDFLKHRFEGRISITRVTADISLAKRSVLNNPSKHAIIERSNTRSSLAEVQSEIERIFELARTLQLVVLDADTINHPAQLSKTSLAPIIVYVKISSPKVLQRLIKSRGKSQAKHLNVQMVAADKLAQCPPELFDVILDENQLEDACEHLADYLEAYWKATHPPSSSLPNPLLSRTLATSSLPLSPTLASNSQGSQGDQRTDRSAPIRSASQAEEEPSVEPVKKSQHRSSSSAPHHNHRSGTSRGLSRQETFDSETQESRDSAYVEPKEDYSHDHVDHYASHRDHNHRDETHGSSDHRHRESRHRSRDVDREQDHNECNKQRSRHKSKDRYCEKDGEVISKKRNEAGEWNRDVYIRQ
T1 sequence (P54289 25-946 partner limits assumed): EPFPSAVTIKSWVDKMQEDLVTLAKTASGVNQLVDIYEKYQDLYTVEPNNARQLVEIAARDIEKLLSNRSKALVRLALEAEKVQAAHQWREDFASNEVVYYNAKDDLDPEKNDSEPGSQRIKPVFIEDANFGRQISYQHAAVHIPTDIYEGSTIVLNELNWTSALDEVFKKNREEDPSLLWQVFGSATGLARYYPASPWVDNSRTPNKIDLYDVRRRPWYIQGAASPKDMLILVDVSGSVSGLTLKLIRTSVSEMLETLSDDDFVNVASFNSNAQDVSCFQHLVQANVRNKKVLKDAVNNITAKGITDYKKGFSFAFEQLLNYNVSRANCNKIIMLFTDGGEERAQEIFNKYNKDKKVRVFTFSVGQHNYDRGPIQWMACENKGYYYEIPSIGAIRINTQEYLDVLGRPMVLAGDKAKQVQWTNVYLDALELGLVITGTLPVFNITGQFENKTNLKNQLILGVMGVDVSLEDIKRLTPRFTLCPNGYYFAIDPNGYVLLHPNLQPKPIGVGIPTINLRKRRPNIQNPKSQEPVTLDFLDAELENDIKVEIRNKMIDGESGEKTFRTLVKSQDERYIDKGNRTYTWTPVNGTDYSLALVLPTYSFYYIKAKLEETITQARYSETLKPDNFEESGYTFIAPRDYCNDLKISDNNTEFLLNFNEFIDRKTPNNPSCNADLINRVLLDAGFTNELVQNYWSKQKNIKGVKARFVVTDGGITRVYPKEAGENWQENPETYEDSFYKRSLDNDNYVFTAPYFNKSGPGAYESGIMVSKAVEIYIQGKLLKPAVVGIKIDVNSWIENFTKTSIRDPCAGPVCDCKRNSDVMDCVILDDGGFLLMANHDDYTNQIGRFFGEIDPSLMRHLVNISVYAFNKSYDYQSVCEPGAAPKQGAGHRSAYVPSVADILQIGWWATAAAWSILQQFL
T1 sequence (P54289 947-1103 partner limits assumed): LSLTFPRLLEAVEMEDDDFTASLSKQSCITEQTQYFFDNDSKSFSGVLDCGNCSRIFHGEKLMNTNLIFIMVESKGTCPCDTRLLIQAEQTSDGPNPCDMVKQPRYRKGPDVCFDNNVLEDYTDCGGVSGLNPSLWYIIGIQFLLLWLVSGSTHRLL

Compound: NC(=O)O[C@@H](Cn1ncnn1)c1ccccc1Cl [cenobamate]
- inhibition at 20 µM (HEK-293T, cenobamate 20 µM, read-out: % ICaL inhibition, mean (Table S5)): 6.65%
- inhibition at 100 µM (HEK-293T, cenobamate 100 µM, read-out: % ICaL inhibition, mean (Table S5)): 11.3%
- inhibition at 100 µM (HEK-293T, cenobamate 100 µM, read-out: % ICaL inhibition, single experiments (Table S5)): 11.2%
- inhibition at 200 µM (HEK-293T, cenobamate 200 µM, read-out: % ICaL inhibition, mean (Table S5)): 34.5%
- inhibition at 200 µM (HEK-293T, cenobamate 200 µM, step at 0 mV, initial set, mean (SD), n = 4, read-out: average inhibition of peak ICaL amplitude): 39.3 ± 13.8%
- inhibition at 400 µM (HEK-293T, cenobamate 400 µM, read-out: % ICaL inhibition, mean (Table S5)): 42%
- inhibition at 400 µM (HEK-293T, cenobamate 400 µM, read-out: % ICaL inhibition, single experiments (Table S5)): 39%
- inhibition at 1000 µM (HEK-293T, cenobamate 1000 µM, read-out: % ICaL inhibition, mean (Table S5)): 65.3%
- IC50 (ICaLIC50 (model script), value entered in C++ script): 510 µM
- IC50 (apparent IC50 for hCav1.2 (ICaL) inhibition, unitary Hill coefficient): 510 µM
- % ICaL inhibition, single experiments (Table S5) (cenobamate 100 µM): 11.40% and 10.58% and 12.03%
- average inhibition of peak ICaL amplitude (cenobamate 200 µM, step at 0 mV, initial set, mean (SD), n = 4): 39.26 ± 13.78%
- % ICaL inhibition, single experiments (Table S5) (cenobamate 400 µM): 41.25% and 47.37% and 40.40%
- % ICaL inhibition, single experiments (Table S5) (cenobamate 1000 µM): 77.36% and 58.39% and 76.52% and 52.87% and 61.56%

Reference: publication PMC11674187, “Inhibitory Effects of Cenobamate on Multiple Human Cardiac Ion Channels and Possible Arrhythmogenic Consequences” (Biomolecules, 2024)
